SMILES strings stand for the structures.

For assay [1], the system named is Arabidopsis plants. The experiment in a line: Brassinazole application to Arabidopsis plants (mutant screen). It counts as in vivo, Arabidopsis thaliana. Conditions: EMS mutagenized Arabidopsis plants, most plants. Here is the method: EMS mutagenized Arabidopsis seeds were grown into plants that were then subjected to a suppressor screen for mutants insensitive to the brassinosteroid pathway inhibitor brassinazole. […] The mutant protein is herein referred to as bzr1-D (SEQ ID NO. 7).
(§1) The mutagenized plants were put through a screening procedure based on the use of brassinazole, a triazole-type brassinosteroid biosynthesis inhibitor (Asami, et al., Plant Physiol. 123: 93, 2000).

The test system of the next assay is bzr1-D mutant. The experiment in a line: Brassinazole sensitivity of the bzr1-D mutant. It counts as in vivo, Arabidopsis thaliana.
Excerpt: as §1
The dark-grown bzr1-D mutant is insensitive to brassinazole inhibition of hypocotyl elongation. The bzr1-D mutant has a curly hypocotyl similar to that of a seedling grown on medium containing brassinosteroids.

Assay [2] relates to Arabidopsis plants. Conditions: normal Arabidopsis plants; cited from earlier work.

Consider `CC(O)(c1ccccc1)C(Cc1ccc(Cl)cc1)n1cncn1` (stereo not shown) [brassinazole], for which, in the assay with Arabidopsis plants [1], the “Phenotype of plants treated with brassinazole” value is on record as “stunted”. The Bassinazole sensitivity entry was “insensitive” in the assay on bzr1-D mutant (dark-grown) and “partially sensitive” in the assay with bzr1-D mutant (light-grown). The “Effects of brassinazole application” value in the assay on Arabidopsis plants [2] is “dwarfism, altered leaf morphology, darker greening of leaves, and decreased hypocotyl length”.

The values are drawn from US6921848B2, “Genes involved in brassinosteroid hormone action in plants” (The Salk Institute for Biological Studies, priority 2001, dated 2005).
